Data taken from patent US10273217B2, “Triazole derivatives” (Hoffmann-La Roche Inc., priority 2015, dated 2019).

Legend:
[1] = target: T1, human EAAT3 (Homo sapiens, UniProt P43005); assay: FLIPR Membrane Potential (FMP) assay, antagonist potency at human EAAT3; assay type: cell-based; details: HEK-293 cells stably expressing human EAAT3; L-glutamate as agonist at EC80; Kb from IC50 by Cheng-Prusoff equation
T1 construct: expressed in transfected cells
T1 sequence (P43005 1-524): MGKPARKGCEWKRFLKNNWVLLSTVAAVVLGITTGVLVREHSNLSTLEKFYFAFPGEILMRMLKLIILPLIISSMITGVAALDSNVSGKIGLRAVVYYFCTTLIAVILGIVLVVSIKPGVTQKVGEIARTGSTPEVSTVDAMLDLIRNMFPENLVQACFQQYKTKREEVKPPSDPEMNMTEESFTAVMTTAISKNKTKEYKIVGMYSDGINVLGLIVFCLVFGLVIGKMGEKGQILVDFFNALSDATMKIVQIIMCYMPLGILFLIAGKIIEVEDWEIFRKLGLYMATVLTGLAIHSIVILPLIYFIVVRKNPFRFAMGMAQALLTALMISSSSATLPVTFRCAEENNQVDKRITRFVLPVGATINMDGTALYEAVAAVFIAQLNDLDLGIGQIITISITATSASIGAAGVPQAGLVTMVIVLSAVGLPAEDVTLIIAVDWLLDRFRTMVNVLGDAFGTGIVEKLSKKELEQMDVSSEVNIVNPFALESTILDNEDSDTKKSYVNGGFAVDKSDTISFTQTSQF
Experimental: The FLIPR Membrane Potential (FMP) Assay
HEK-293 cells stably expressing human EAAT3 were seeded at 55 000 cells/well in growth medium (DMEM glutamate free (Invitrogen 11960-044), 1% Pen Strep (10 ml/l GIBCO BRL N°15140-023), 10% FCS non dialysed heat inactivated, 5 mg/l puromycin) in poly-D-lysine treated 96-well black microtiter plates with clear-bottom. After 24 h, the growth medium was removed and 100 μl/well of Krebs buffer (140 mM NaCl, 4.7 mM KCl, 2.5 mM CaCl2, 1.2 mM MgCl2, 11 mM HEPES, 10 mM D-glucose, pH=7.4) added. The cells were then loaded by adding 100 μl/well FMP assay dye (FLIPR Membrane Potential assay reagent, Molecular Devices). The 96-well plates were then incubated at 37° C. for 1 h. The depolarization of the cells will cause more dye to enter in the cells, where it will bind to intracellular proteins and lipids and cause an increase in the fluorescence signal. Antagonist potency at human EAAT3 was determined by using L-glutamate as agonist at a concentration which gives 80% of the maximum response. The antagonists were applied 15 min before the application of the agonist L-glutamate. The assays were performed at room temperature and measurements done by using a Fluorometric Imaging Plate Reader (FLIPR, Molecular Devices) and filter #2. Responses were measured as peak increase in fluorescence minus basal (i.e. fluorescence without addition of L-glutamate). Kb was determined using the Cheng-Prusoff equation Kb=IC50/[1+(A/EC50)], where IC50 is the concentration of the antagonist producing 50% inhibition, A is the concentration of the agonist against which the IC50 is being determined (at EC80) and EC50 is the concentration of the agonist producing 50% […].

SMILES	melting point [°C]	Kb [1] [nM]
CC(C)c1nncn1-c1cc(C(=O)NC(C)(C)C)cc(-c2ccc(Cl)c(F)c2)c1 [Example 30, N-tert-Butyl-3-(4-chloro-3-fluorophenyl)-5-(3-propan-2-yl-1,2,4-triazol-4-yl)-benzamide]	135	100
CCC(C)(C)NC(=O)c1cc(-c2ccc(F)cc2)cc(-n2cnnc2C(C)C)c1 [Example 24, 3-(4-Fluorophenyl)-N-(2-methylbutan-2-yl)-5-(3-propan-2-yl-1,2,4-triazol-4-yl)-benzamide]	95	54
CC(C)(C)NC(=O)c1cc(-c2ccc(Cl)cc2)cc(-n2cnnc2CO)c1 [Example 26, N-tert-Butyl-3-(4-chlorophenyl)-5-[3-(hydroxymethyl)-1,2,4-triazol-4-yl]-benzamide]	210	145
Cc1nncn1-c1cc(C(=O)NC(C)(C)C)cc(-c2ccc(F)cc2)c1 [Example 5, N-tert-Butyl-3-(4-fluorophenyl)-5-(3-methyl-1,2,4-triazol-4-yl)-benzamide]	235.5	160
CC(C)(C)NC(=O)c1cc(-c2ccc(F)cc2)cc(-n2cnnc2)c1 [Example 2, N-tert-Butyl-3-(4-fluorophenyl)-5-(1,2,4-triazol-4-yl)-benzamide]	204	290
CC(C)(C)NC(=O)c1cc(-c2ccc(C(F)(F)F)cc2)cc(-n2cnnc2C(C)(C)C)c1 [Example 10, N-tert-Butyl-3-(3-tert-butyl-1,2,4-triazol-4-yl)-5-[4-(trifluoromethyl)-phenyl]-benzamide]	280.5	160
CC(C)c1nncn1-c1cc(C(=O)NC(C)(C)C2CC2)cc(-c2ccc(C(F)(F)F)cc2)c1 [Example 19, N-(2-Cyclopropyl-propan-2-yl)-3-(3-propan-2-yl-1,2,4-triazol-4-yl)-5-[4-(trifluoromethyl)-phenyl]-benzamide]	100	220
COc1ccc(-c2cc(C(=O)NC(C)(C)C)cc(-n3cnnc3C(C)C)c2)cc1 [Example 29, N-tert-Butyl-3-(4-methoxyphenyl)-5-(3-propan-2-yl-1,2,4-triazol-4-yl)-benzamide]	107	290
Cc1nncn1-c1cc(C(=O)NC(C)(C)C)cc(-c2ccc(Cl)cc2)c1 [Example 6, N-tert-Butyl-3-(4-chlorophenyl)-5-(3-methyl-1,2,4-triazol-4-yl)-benzamide]	241	76
CC(C)c1nncn1-c1cc(C(=O)NC(C)(C)C)cc(-c2ccc(C#N)cc2)c1 [Example 34, N-tert-Butyl-3-(4-cyano-phenyl)-5-(3-propan-2-yl-1,2,4-triazol-4-yl)-benzamide]	290	220
